The record followed here is a melting point compilation (Tetko et al.; mined from patent text by program, amines drawn as free bases though some values may be those of a salt).

SMILES strings stand for the structures. A value given as a limit tells only on which side of the number the result lay.

As usually defined, the melting point is the temperature, or range, at which the solid turns liquid. In the case of `COC(=O)C1=C(C)NC(C)=C(C(=O)OCC2CCCO2)C1c1cccc(NC(C)=O)c1` (stereo unspecified), the melting point is 158 to 160 °C.

On to `O=[N+]([O-])C=C1C[N+]([O-])=C(c2ccccc2F)c2cc([N+](=O)[O-])ccc2N1`, for which the melting point was 216 to 220 °C.

In the case of `COc1ccc([C@]2(C)C=Cc3cc(OC)ccc3[C@H]2C=O)cc1` (relative stereo), the melting point is 127 °C.

For the molecule `Cn1nc(C(F)F)c(CS(=O)(=O)C2=NOC(C)(C)C2)c1Cl`, the melting point lay within 78 to 79 °C.

As for `Clc1ccc2ccc(COc3ccc4c(c3)C(SCCc3nnn[nH]3)c3ccccc3CO4)nc2c1` (stereo unspecified), the melting point is 142 to 147 °C.

For `NC(=O)Oc1cccc2ccccc12`, the melting point was determined as 118 °C.

The molecule `O=C(O)Cc1ccc2oc(-c3ccc(N4C=CC=CN4c4ccc(-c5nc6cc(CC(=O)O)ccc6o5)cc4)cc3)nc2c1` displayed a melting point greater than 300 °C.

`COc1cc2c(cc1Nc1ncc(Cl)c(Nc3ccccc3S(=O)(=O)N3CCCC3)n1)CCN(CC(=O)N(C)C)CC2` returned a melting point of 67 to 74 °C.

Molecule `CCCCNC(=O)ON1C(C)(C)CC(OC(=O)c2cccc(C(=O)OC3CC(C)(C)N(OC(=O)NCCCC)C(C)(C)C3)c2)CC1(C)C` registered a melting point of 176 to 177 °C.

Regarding `COc1ccc(-c2cc(CN3C(=O)c4ccccc4C3=O)c(=O)n(Cc3ccc(Cl)cc3)n2)cc1F`, the melting point lay within 212 to 214 °C.

With `COC(=O)c1ccc(OC)cc1I`, the melting point stood at 185 °C.

`CCC[C@H](Oc1cc(C)c(-n2cc(C(F)(F)F)cn2)c(C)c1)c1ccc(C(=O)NCCC(=O)O)cc1` gave a melting point of 157 to 159 °C.

For the molecule `CCOC(=O)NC(=O)C(C#N)=CNc1c(Cl)cc(Cl)cc1Cl`, the melting point is 245 to 247 °C.

`CCOC(=O)c1ccc(C(=O)Nc2ccc3c(c2)C(C)(C)CC(=O)N3C)cc1` showed a melting point of 197 to 199 °C.

Take `Cc1cc(C)cc(Sc2c(C)c[nH]c(=O)c2NC=O)c1`: the melting point fell in the range of 221 to 222 °C.

The molecule `CCCc1nc2c(N)nc3ccc(Br)cc3c2s1` returned a melting point of 177 to 180 °C.

Turning to `O=C(c1cc(-c2ccccc2)c(=O)n2c1-c1ccccc1C2)N1CCOCC1`, the melting point lay within 262 to 266 °C.

As for `CC(C)N1CC2(COc3ccc([N+](=O)[O-])cc3OC2)OC1c1ccccc1` (stereo unspecified), the melting point was 151 to 152 °C.

For `Cn1cc(C(N)=O)c(=O)c2cc(F)ccc21`, the melting point was in the range of 295 to 299 °C.

For the molecule `CCCCN(CCCC)Cc1nnc(-c2ncn3c2CN(C)C(=O)c2c(Cl)cccc2-3)o1`, the melting point lay in the range of 105 to 108 °C.

Consider `CC(C)Nc1cccnc1N1CCN(C(=O)c2ccc(C(=O)Nc3nncs3)cn2)CC1`, for which the melting point lay within 260 to 262 °C.

In turn, `O=C(NCc1ccc([N+](=O)[O-])cc1)C(F)(F)F` gave a melting point of 97 to 98 °C.

Molecule `Cc1sc2c(c1C)C(c1ccc(Cl)cc1)=N[C@@H](CC(=O)Nc1ccc(O)cc1)c1nnc(C)n1-2` returned a melting point of 215 to 220 °C.

Regarding `CCn1c(-c2ccc(-n3ccnc3)cc2)cnc1[C@H](Cc1ccccn1)N(C=O)c1cc2cc(F)ccc2o1`, the melting point lay in the range of 80 to 84 °C.

`O=C(/C=C/c1ccc2c(/C=C/C(=O)N3CCCC3)c[nH]c2c1)N1CCCC1` displayed a melting point of 268 to 270 °C.

Take `NS(=O)(=O)OCCOS(N)(=O)=O`: the melting point lay in the range of 98.5 to 101 °C.

For the molecule `COc1ccc(-c2c(Cl)c(CNS(=O)(=O)c3ccccc3)nc3sc4c(c23)CCN(Cc2ccccc2)C4)cc1OC`, the melting point was in the range of 153 to 154 °C.

Regarding `O=C(Nc1cccc2ccccc12)OCc1ccc(CO)cc1`, the melting point is 158 to 159 °C.

As to `CC(=O)c1cc(Cl)cc(Oc2ncccc2C(=O)NC[C@H]2CC[C@H](C(C)(C)O)CC2)c1`, the melting point was 133 to 135 °C.

`CCOCC(=O)Nc1ncc(Cc2cc(OC)c(OC)c(OC)c2)c(N)n1` returned a melting point of 175 to 176 °C.

As to `COc1ccc2nc(COc3ccc(F)c(C(N)=O)c3F)sc2c1`, the melting point lay within 190 to 192 °C.

For the molecule `COC=C(C(=O)OC)c1ccccc1CC(=O)c1ccccc1`, the melting point fell in the range of 97 to 99 °C.

Take `CCOC(=O)C1=C(COCc2nccn2C)NC(C)=C(C(=O)OC)C1c1ccccc1Cl` (stereo unspecified): the melting point lay in the range of 137 to 138 °C.

For the molecule `S=c1sc(=Nc2ccc(Cl)cc2)n2n1CCCC2`, the melting point was 96 to 97 °C.

As to `CNc1nc(SC)nc(N(C)C)c1[N+](=O)[O-]`, the melting point fell in the range of 128 to 132 °C.

As to `Cc1ccc2c(c1)C(=O)C1=NCCCN12`, the melting point lay within 128 to 130 °C.

Molecule `O=C(Nc1nnco1)C1c2ccccc2Oc2ccccc21` returned a melting point of 239 to 240 °C.

Molecule `Cc1oc(-c2ccccc2)nc1COc1nn(Cc2ccc(Oc3ccccc3)cc2)cc1C(=O)O` gave a melting point of 222 to 223 °C.

`COc1ccc2cccc3c2c1CCC3CNC(=O)C1CC1` (stereo unspecified) yielded a melting point of 119 °C.

`CCOC(=O)c1nc(NCC(c2ccccc2)c2ccccc2)c2ncn([C@@H]3O[C@H](CO)[C@H]4OC(C)(C)O[C@H]43)c2n1` showed a melting point of 126 to 128 °C.

Regarding `CC(C)c1c(I)sc2ncc(C#N)c(Cl)c12`, the melting point fell in the range of 177 to 179 °C.

The molecule `COc1ccc(C(=O)Oc2ccc(C(=O)O)cc2)cc1C12CC3CC(CC(C3)C1)C2` registered a melting point of 265 to 267 °C.

Consider `C=C[C@@H](C)[C@H]1CC[C@H]2[C@@H]3CCC4=CC(=O)CC[C@]4(C)[C@H]3CC[C@]12C`, for which the melting point was in the range of 138 to 139 °C.

Turning to `CCCNC(=O)c1cc(-c2ccc(OC)cc2)nn(CC2CC2)c1=O`, the melting point fell in the range of 101 to 102 °C.

Consider `CN(C)c1nc2sc3c(NCCN4CCOCC4)ncnc3c2c2c1COC(C)(C)C2`, for which the melting point was 195 to 196 °C.

Regarding `C=C1N(C(C)(C)C)C(=O)OC12CCN(C(=O)CC)CC2`, the melting point was 104 to 105 °C.

As to `Nc1c(-c2ccc(OC(F)(F)F)cc2)nnn1-c1ccc(C(F)(F)F)cc1F`, the melting point lay within 134 to 135 °C.

Turning to `CCOC(=O)c1ncn2c1cc(-c1ccccc1)c1ccccc12`, the melting point was in the range of 176 to 185 °C.

Regarding `CCN1C(=O)CCCc2ccc(Nc3ncc(Cl)c(Nc4c(C)cccc4C(=O)NC)n3)cc21`, the melting point lay in the range of 210 to 212 °C.

In turn, `COc1ccc(CCN(C)CCCC2(c3ccc(OC)c(OC)c3)S(=O)(=O)CCCS2(=O)=O)cc1OC` showed a melting point of 144 °C.

`CCOc1ccc2[nH]ccc2c1` returned a melting point of 144 to 146 °C.

`O=c1oc(-c2ccccc2)cc(O)c1Oc1ccccc1` yielded a melting point of 215 to 219 °C.

Take `COC(=O)c1cc(Cl)cc2c1OCC(=O)N2`: the melting point lay within 239 to 241 °C.

For the molecule `COc1ccc(-c2nc(-c3ccc(F)cc3)c(-c3ccncc3)[nH]2)cc1`, the melting point was in the range of 264 to 265 °C.

As for `O=[N+]([O-])c1cccc(-c2nc3ccc(OC(F)(F)F)cc3[nH]2)c1`, the melting point fell in the range of 193 to 195 °C.

Molecule `N#Cc1cnn2c3c(c(C(=O)O)nc12)CCN3C1CCCCC1` came in with a melting point of 253 to 255 °C.

Consider `CCOC(=O)c1c(N2CCCC2)c2cnc(-c3ccccc3)nc2n(CC)c1=O`, for which the melting point fell in the range of 149 to 153 °C.

On to `Cc1cc2c3c(cc(C)c2[nH]c1=O)CC(C)(CBr)O3` (stereo unspecified), for which the melting point was 257 to 259 °C.

Turning to `CCOC(=O)c1cc2c(cc1OCC)C(=O)C=CC2=O`, the melting point was in the range of 60 to 62 °C.

`O=C(Cc1ccccc1)NCC(=O)c1ccccc1`: the melting point is 66 to 77 °C.

The molecule `CSc1onc(-c2ccccc2)c1-c1ccccc1` gave a melting point of 83 to 86 °C.

On to `CCCCCCCCCCCCCCCCCCNC(=O)SCC(COCc1ccccc1)OC` (stereo unspecified), for which the melting point is 40 to 41 °C.

Take `COC(=O)c1ccccc1-c1cc(-c2cccc(C(F)(F)F)c2)no1`: the melting point lay within 46 to 48 °C.

The molecule `Cc1ccncc1-n1nc(C)c(CC(=O)O)c1-c1ccccc1` registered a melting point of 246 °C.

Turning to `COC(=O)c1ccc(OCCNC(=O)C2Cc3ccccc3N2S(=O)(=O)c2ccc(-c3cccc(C(F)(F)F)c3)cc2)c(C)c1` (stereo unspecified), the melting point is 68 to 74 °C.

`O=C(Nc1cccc2c(=O)nc[nH]c12)c1c(Cl)cccc1Cl` gave a melting point greater than 250 °C.

`CCOC(=O)c1nnc(S)n1Cc1ccc(OC)cc1` came in with a melting point of 142 to 144 °C.

For the molecule `COC(=O)C(C)(C)Cc1c(SC(C)(C)C)c2cc(OCc3ccc4cnccc4n3)ccc2n1Cc1ccc(Cl)cc1`, the melting point is 152 to 155 °C.

For `CC(=O)N1CCc2ccccc2C1Cc1ccccc1N` (stereo unspecified), the melting point fell in the range of 142 to 148 °C.

Take `O=C(O)CC(O)c1cccc(Cl)c1` (stereo unspecified): the melting point was in the range of 94.5 to 95.5 °C.

The molecule `O=C(O)c1cn(C2COC2)c2c(F)c(F)cc(F)c2c1=O` returned a melting point greater than 300 °C.

`COC(=O)c1c[nH]c(-c2ccc(OC[C@@H](O)CNC(C)(C)C)cc2)n1` yielded a melting point of 168 to 172 °C.

`Oc1ccc(-c2ccc3cc(O)nc-3o2)cc1`: the melting point is greater than 300 °C.

`CC(C)C[C@@H](C(=O)O)n1sc2ccc(F)cc2c1=O` came in with a melting point of 161 to 162 °C.

Consider `COC(=O)c1ccccc1Oc1ccc(C(F)(F)F)cc1[N+](=O)[O-]`, for which the melting point was 69 to 70 °C.

`CN(C)C(=O)C=C(N(C(N)=O)c1cc(F)c(C#N)cc1F)C(F)(F)F` came in with a melting point of 198 °C.

On to `CCOc1cc(-c2cc(C(F)(F)F)n3ncc(-c4nc(-c5ccc(N)nc5)no4)c3n2)ccc1C(F)(F)F`, for which the melting point was 263 °C.

For the molecule `Cc1c(Cl)ccc2c3cccc(C(=O)O)c3n(C)c12`, the melting point stood at 237 °C.

In turn, `Cc1ccc(N)c(S)c1` yielded a melting point of 90 °C.

`O=C1NC(=O)C(=Cc2ccc(-c3ccc(O)c(C45CC6CC(CC(C6)C4)C5)c3)cc2)S1` returned a melting point of 307 to 308 °C.

As to `Cn1c(=NC(=S)Nc2ccccc2)n(C)c2ccccc21`, the melting point was found to be 245 °C.

Take `COc1ccc(N2CCN(C(=O)C(C)(C)C3OCCc4ccccc43)CC2)cc1` (stereo unspecified): the melting point was in the range of 120 to 121 °C.

Consider `CC(C(=O)O)c1ccc(CC2CCCC2=O)cc1` (stereo unspecified), for which the melting point lay in the range of 108 to 111 °C.

In the case of `CN1CCN(c2cccc3c2CC(=O)CC3)CC1`, the melting point was greater than 85 °C.

The molecule `CCCOC1(c2ccc(C)cc2C)N=C(c2ccc(C)cc2C)N=CN1` (stereo unspecified) showed a melting point of 86 to 88 °C.

`COc1ccc2cc(C(N)=O)ccc2c1`: the melting point fell in the range of 224 to 226 °C.
